Where “and” joins values, the source holds several entries; their conditions need not be identical. Equal values may be shown once. Read-outs that look alike come from different tables or passages of the source. Marks after values point to notes of the source that are not given here. Values belong to the molecule of their own block, whether it stands above or below them.
What was measured:
[1] = test system: NCI-H1299 human NSCLC xenograft model; conditions: for T/C weight: mean final tumor weight
Excerpt: In Vivo Anti-Tumor Efficacy of Mps-1 Kinase Inhibitors of the Present Invention in Combination with Paclitaxel in NCI-H1299 Human NSCLC Model in Nude Mice
The effect of combination treatment of an Mps-1 kinase inhibitor of the present invention and paclitaxel was studied in the NCI-H1299 taxane intrinsically resistant human lung carcinoma (NSCLC) xenograft model in nude mice. […] Substances were formulated in optimal vehicles to achieve solutions. Animal body weight and tumor size were determined three times weekly. Treatment for all groups started at a tumor size of 30 mm^2, at day 8 after tumor cell inoculation. […] At the end of the study after one final treatment plasma and tumors were sampled for PK analysis and final tumor weight was determined.

[2] = test system: spindle assembly checkpoint in HeLa cells (phosphorylated histone H3 on serine 10); assay: Spindle Assembly Checkpoint Assay; assay type: cell-based; conditions: Homo sapiens, nocodazole 0.1 μg/ml, 4 h with compound
Excerpt: The spindle assembly checkpoint assures the proper segregation of chromosomes during mitosis. Upon entry into mitosis, chromosomes begin to condensate which is accompanied by the phosphorylation of histone H3 on serine 10. Dephosphorylation of histone H3 on serine 10 begins in anaphase and ends at early telophase. Accordingly, phosphorylation of histone H3 on serine 10 can be utilized as a marker of cells in mitosis. Nocodazole is a microtubule destabilizing substance. Thus, nocodazole interferes with microtubule dynamics and mobilises the spindle assembly checkpoint. […] An inhibition of the spindle assembly checkpoint by Mps-1 inhibitors overrides the mitotic blockage in the presence of nocodazole, and the cells complete mitosis prematurely. This alteration is detected by the decrease of cells with phosphorylation of histone H3 on serine 10. This decline is used as a marker to determine the capability of compounds of the present invention to induce a mitotic breakthrough.
Cultivated cells of the human cervical tumour cell line HeLa (ATCC CCL-2) were plated at a density of 2500 cells/well in a 384-well microtiter plate in 20 μl Dulbeco's Medium (w/o phenol red, w/o sodium pyruvate, w […] glucose, w pyridoxine) supplemented with 1% (v/v) glutamine, 1% (v/v) penicillin, 1% (v/v) streptomycin and 10% (v/v) fetal calf serum. After incubation overnight at 37° C., 10 μl/well nocodazole at a final concentration of 0.1 μg/ml were added to cells. After 24 h incubation, cells were arrested at G2/M phase of the cell cycle progression. […] Images were acquired with a Perkin Elmer OPERA™ High-Content Analysis reader. Images were analyzed with image analysis software MetaXpress™ from Molecular devices utilizing the Cell Cycle application module. In this assay both labels HOECHST 33342 and phosphorylated Histone H3 on serine 10 were measured. […] The raw assay data were further analysed by four parameter logistic regression analysis to determine the IC50 value for each tested compound.

[3] = test system: A2780cis human ovarian cancer xenograft model; conditions: for T/C weight: mean final tumor weight
Method: In Vivo Anti-Tumor Efficacy of Mps-1 Kinase Inhibitors of the Present Invention in Combination with Paclitaxel in A2780cis Human Ovarian Cancer Model in Nude Mice
The effect of combination treatment of an Mps-1 kinase inhibitor of the present invention and paclitaxel was studied in the adaptive cisplatin-resistant and paclitaxel intrinsically resistant A2780cis xenograft model. […] Animal body weight and tumor size were determined three times weekly. Treatment for all groups started at a tumor size of 29 mm^2, at day 6 after tumor cell inoculation. […] At the end of the study after one final treatment plasma and tumors were sampled for PK analysis and final tumor weight was determined.

[4] = biological target: T1, human kinase Mps-1 (Homo sapiens, UniProt P33981); assay: Mps-1 Kinase Assay (TR-FRET); assay type: biochemical; conditions: 10 μM ATP
T1 construct: N-terminally GST-tagged human full length recombinant Mps-1 kinase; purchased Invitrogen, Karslruhe, Germany PV4071
T1 sequence (P33981 1-857): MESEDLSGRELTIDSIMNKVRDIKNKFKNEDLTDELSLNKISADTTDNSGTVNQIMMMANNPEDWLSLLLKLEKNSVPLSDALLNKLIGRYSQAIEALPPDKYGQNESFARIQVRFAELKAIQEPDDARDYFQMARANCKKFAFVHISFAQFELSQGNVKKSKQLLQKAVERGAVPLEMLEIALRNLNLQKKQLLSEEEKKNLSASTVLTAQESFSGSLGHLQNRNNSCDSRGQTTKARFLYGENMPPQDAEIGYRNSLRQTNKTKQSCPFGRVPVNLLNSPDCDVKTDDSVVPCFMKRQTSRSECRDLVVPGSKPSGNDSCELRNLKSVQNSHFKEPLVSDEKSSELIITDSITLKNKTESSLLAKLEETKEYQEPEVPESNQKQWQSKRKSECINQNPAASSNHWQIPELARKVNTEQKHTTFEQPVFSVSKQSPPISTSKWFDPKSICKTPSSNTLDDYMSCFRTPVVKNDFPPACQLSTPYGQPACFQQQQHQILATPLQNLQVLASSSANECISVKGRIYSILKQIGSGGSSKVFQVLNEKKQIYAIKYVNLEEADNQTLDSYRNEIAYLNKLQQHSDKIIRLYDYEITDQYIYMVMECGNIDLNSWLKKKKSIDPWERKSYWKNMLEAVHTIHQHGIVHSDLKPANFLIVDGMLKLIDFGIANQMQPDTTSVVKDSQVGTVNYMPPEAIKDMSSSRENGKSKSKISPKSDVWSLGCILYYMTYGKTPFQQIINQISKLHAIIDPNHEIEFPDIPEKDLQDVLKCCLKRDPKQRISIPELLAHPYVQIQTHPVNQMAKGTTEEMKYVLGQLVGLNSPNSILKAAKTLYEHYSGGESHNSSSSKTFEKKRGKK
Method: The human kinase Mps-1 phosphorylates a biotinylated substrate peptide. Detection of the phosphorylated product is achieved by time-resolved fluorescence resonance energy transfer (TR-FRET) from Europium-labelled anti-phospho-Serine/Threonine antibody as donor to streptavidin Labelled with cross-linked allophycocyanin (SA-XLent) as acceptor. Compounds are tested for their inhibition of the kinase activity.
N-terminally GST-tagged human full length recombinant Mps-1 kinase (purchased from Invitrogen, Karslruhe, Germany, cat. no PV4071) was used. As substrate for the kinase reaction a biotinylated peptide of the amino-acid sequence […] (C-terminus in amide form, purchased from Biosynthan GmbH, Berlin) was used.
The concentration of Mps-1 in the assay was adjusted to the activity of the enzyme lot and was chosen appropriate to have the assay in the linear range, typical enzyme concentrations were in the range of about 1 nM (final conc. in the 5 μl assay volume).
The resulting mixture was incubated 1 h at 22° C. to allow the binding of the phosphorylated peptide to the anti-phospho(Ser/Thr)-Europium-antibody. Subsequently the amount of phosphorylated substrate was evaluated by measurement of the resonance energy transfer from the Europium-labelled anti-phospho(Ser/Thr) antibody to the Streptavidin-XLent.

[5] = test system: rat hepatocytes; assay: In vitro metabolic stability in rat hepatocytes; assay type: in vitro ADME; conditions: 1 μM test compound, calculated from half-life
Method: Investigation of In Vitro Metabolic Stability in Rat Hepatocytes (Including Calculation of Hepatic In Vivo Blood Clearance (CL))
Hepatocytes from Han Wistar rats were isolated via a 2-step perfusion method. After perfusion, the liver was carefully removed from the rat: the liver capsule was opened and the hepatocytes were gently shaken out into a Petri dish with ice-cold WME. The resulting cell suspension was filtered through sterile gaze in 50 ml falcon tubes and centrifuged at 50×g for 3 min at room temperature.
The cell pellet was resuspended in 30 ml WME and centrifuged through a Percoll® gradient for 2 times at 100×g. The hepatocytes were washed again with Williams' medium E (WME) and resuspended in medium containing 5% FCS. Cell viability was determined by trypan blue exclusion.
For the metabolic stability assay liver cells were distributed in WME containing 5% FCS to glass vials at a density of 1.0×10^6 vital cells/m. The test compound was added to a final concentration of 1 μM. During incubation, the hepatocyte suspensions were continuously shaken and aliquots were taken at 2, 8, 16, 30, 45 and 90 min, to which equal volumes of cold methanol were immediately added. Samples were frozen at −20° C. over night, after subsequently centrifuged for 15 minutes at 3000 rpm and the supernatant was analyzed with an Agilent 1200 HPLC-system with LCMS/MS detection.
The half-life of a test compound was determined from the concentration-time plot. From the half-life the intrinsic clearances were calculated. Together with the additional parameters liver blood flow, amount of liver cells in vivo and in vitro. The hepatic in vivo blood clearance (CL) and the maximal oral bioavailability (Fmax) was calculated. The following parameter values were used: Liver blood flow—4.2 L/h/kg rat; specific liver weight—32 g/kg rat body weight; liver cells in vivo—1.1×10^8 cells/g liver, liver cells in vitro—0.5×10^6/ml.

[6] = Compound A27 2 mg/kg 2QD 2on/5off p.o.
[7] = Compound A27 3 mg/kg 2QD 2on/5off p.o.
[8] = Paclitaxel 20/15 (d19) mg/kg QD 2on/6off i.v.
[9] = Paclitaxel 20/15 (d19) mg/kg QD 2on/6off i.v., relative tumor area at control dosing stop

Structure (SMILES): COc1ccc(Oc2cc(NCCC(F)(F)F)c3ncc(-c4ccc(C(=O)NC5CC5)c(C)c4)n3n2)c(F)c1F [Compound A27, N-cyclopropyl-4-{6-(2,3-difluoro-4-methoxyphenoxy)-8-[(3,3,3-trifluoropropyl)amino]imidazo[1,2-b]pyridazin-3-yl}-2-methylbenzamide]
Fatal Tox [1, 6]: 0/10
T/C weight [1, 6]: 1.18
T/C area ([1]; Compound A27 2 mg/kg 2QD 2on/5off p.o., relative tumor area at control dosing stop (22 treatment days)): 0.99 and 0.98
Fatal Tox [1, 7]: 0/10
T/C weight [1, 7]: 0.74
T/C area ([1]; Compound A27 3 mg/kg 2QD 2on/5off p.o., relative tumor area at control dosing stop (22 treatment days)): 0.64
IC50 [2]: < 1000 pM
Fatal Tox [3, 6]: 0/10
T/C weight [3, 6]: 0.98
T/C area ([3]; Compound A27 2 mg/kg 2QD 2on/5off p.o., relative tumor area at control dosing stop (15 treatment days)): 1.00
Fatal Tox [3, 7]: 0/10
T/C weight [3, 7]: 0.88
T/C area ([3]; Compound A27 3 mg/kg 2QD 2on/5off p.o., relative tumor area at control dosing stop (15 treatment days)): 0.90

Structure (SMILES): CC(=O)O[C@H]1C(=O)[C@@]2(C)[C@H]([C@H](OC(=O)c3ccccc3)[C@]3(O)C[C@H](OC(=O)[C@H](O)[C@@H](NC(=O)c4ccccc4)c4ccccc4)C(C)=C1C3(C)C)[C@]1(OC(C)=O)CO[C@@H]1C[C@@H]2O [Paclitaxel, (2α,4α,5β,7β,10β,13α)-4,10-bis(acetyloxy)-13-{[(2R,3S)-3-(benzoylamino)-2-hydroxy-3-phenylpropanoyl]oxy}-1,7-dihydroxy-9-oxo-5,20-epoxytax-11-en-2-yl benzoate, reference compound]
Fatal Tox [1, 8]: 0/10
T/C area [1, 9]: 0.13^#
T/C area ([1]; Paclitaxel 20/15 (d19) mg/kg QD 2on/6off i.v., relative tumor area at control dosing stop, listed as paclitaxel): 0.13
Max. Body weight loss ([1]; mouse, in vivo, iv): −1.9%
Fatal Tox [3, 8]: 0/10
T/C area [3, 9]: 0.06^#
Max. Body weight loss ([3]; mouse, in vivo, iv): −0.7%

Now from value to molecule:

IC50 [4]: 300 pM
Fmax (maximal oral bioavailability) [5]: 45%
Structure (SMILES): Cc1cc(-c2cnc3c(NCCC(F)(F)F)cc(C(O)c4cc(F)ccc4F)nn23)ccc1C(=O)NC1CC1 (racemic) [Compound A11, (RS)—N-Cyclopropyl-4-{6-[(2,5-difluorophenyl)(hydroxy)methyl]-8-[(3,3,3-trifluoropropyl)amino]imidazo[1,2-b]pyridazin-3-yl}-2-methylbenzamide]

IC50 [4]: 400 pM
Fmax (maximal oral bioavailability) [5]: 28%
Structure (SMILES): C=C(c1cc(NCCC(F)(F)F)c2ncc(-c3ccc(C(=O)NC4CC4)c(C)c3)n2n1)c1cc(F)ccc1O [Compound A22, N-cyclopropyl-4-{6-[1-(5-fluoro-2-hydroxyphenyl)ethenyl]-8-[(3,3,3-trifluoropropyl)amino]imidazo[1,2-b]pyridazin-3-yl}-2-methylbenzamide]

IC50 [4]: 500 pM
Fmax (maximal oral bioavailability) [5]: 48%
Structure (SMILES): C=C(c1ccc(OC)cc1)c1cc(NCCC(F)(F)F)c2ncc(-c3ccc(C(=O)NC4CC4)c(C)c3)n2n1 [Compound A10, N-Cyclopropyl-4-{6-[1-(4-methoxyphenyl)vinyl]-8-[(3,3,3-trifluoropropyl)amino]imidazo[1,2-b]pyridazin-3-yl}-2-methylbenzamide]

Source: patent US20160175306A1, “COMBINATION OF A IMIDAZOPYRIDAZINE DERIVATIVE AND A MITOTIC AGENT FOR THE TREATMENT OF CANCER” (BAYER PHARMA AKTIENGESELLSCHAFT, priority 2013, published 2016)
